System: normotensive dogs
Test: Poststudy efficacy challenge: single topical ocular dose, IOP followed for 24 hours
Assay type: in vivo, female beagle dogs
Method: IOP was measured by using a TonoVet according to a study-specific procedure. IOP measurements consisted of three independent readings per eye per time point from each eye. Following approximately 4 weeks of washout, animals in both groups were administered latanoprost in the right eye and phosphate-buffered saline (PBS) in the left eye, and IOP measurements were followed for 24 hours. As applicable, the dosing solution was drawn up into a 1-mL luer-lock syringe using a standard 21-gauge, 1-inch needle. Bubbles were expressed and the standard needle was replaced by a 30-gauge microneedle 1100 μm in length. […] Following the injection, the needle was kept in the eye for approximately 10 seconds before being withdrawn. Upon withdrawal of the microneedle, a cotton-tipped applicator (CTA, dose wipe) was placed over the injection site for approximately 10 seconds. The right eye was dosed first and all post-dose times were based on the time of dosing of the second (left) eye.
Approximately 8 weeks after dose administration, all animals underwent a poststudy efficacy challenge. A positive displacement pipette was used to administer a single 35-μL dose of latanoprost to the right eye and phosphate-buffered saline (PBS) to the left eye. IOP was measured prior to dose administration (approximately −1 and 0 hours), and at 2, 4, 6, 8, and 24 hours following treatment. […]

For `CC(C)OC(=O)CCC/C=C\C[C@@H]1[C@@H](CC[C@@H](O)CCc2ccccc2)[C@H](O)C[C@@H]1O` [Latanoprost], the “effect on IOP” value (right eyes vs PBS left eyes kept at about baseline (FIGS. 13-16)) was “decreased the IOP” and the “mean maximum effective decrease (Emax) in IOP values” (single 35-μL topical ocular dose, right eye, Groups 1 and 2) was 3-5 mm Hg.

Source: patent US20190133933A1, “FORMULATIONS AND METHODS FOR REDUCTION OF INTRAOCULAR PRESSURE” (CLEARSIDE BIOMEDICAL, INC., priority 2016, published 2019)
